Measured values published in PubChem BioAssay AID2060908 (Molecular Pharmacology Branch, DTP, NCI, 2025).

Test system: 186277-243-T-J2-PDC complex spheroids, viability
Experiment: Anticancer human tumor 186277-243-T-J2-PDC patient-derived colon adenocarcinoma cell line growth inhibition [RAS]
Conditions: for IC50: curve of first compound; for viability, T/C: stronger effect = lower value
How it was run: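 Multi-cell-type spheroids: tumor cells plus HUVEC endothelial cells and mesenchymal stem cells. RAS-pathway inhibitors were combined with targeted agents, each dosed in half-log steps down from clinical Cmax, or from 10 microM when Cmax was unknown.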

[1] = second compound 0.0316 µM, first compound 0.0316 µM
[2] = second compound 0.0316 µM, first compound 0.1 µM
[3] = second compound 0.0316 µM, first compound 0.316 µM
[4] = second compound 0.0316 µM, first compound 1 µM
[5] = second compound 0.1 µM, first compound 0.0316 µM
[6] = second compound 0.1 µM, first compound 0.1 µM
[7] = second compound 0.1 µM, first compound 0.316 µM
[8] = second compound 0.1 µM, first compound 1 µM
[9] = second compound 0.316 µM, first compound 0.0316 µM
[10] = second compound 0.316 µM, first compound 0.1 µM
[11] = second compound 0.316 µM, first compound 0.316 µM
[12] = second compound 0.316 µM, first compound 1 µM
[13] = second compound 1 µM, first compound 0.0316 µM
[14] = second compound 1 µM, first compound 0.1 µM
[15] = second compound 1 µM, first compound 0.316 µM
[16] = second compound 1 µM, first compound 1 µM
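Further: spheroids exposed to compounds for 7 days before viability read.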

## CC(=O)OC12COC1CC(O)C1(C)C(=O)C(O)C3=C(C)C(OC(=O)C(O)C(NC(=O)OC(C)(C)C)c4ccccc4)CC(O)(C(OC(=O)c4ccccc4)C21)C3(C)C (stereo unspecified) + C#Cc1c(F)ccc2cc(O)cc(-c3ncc4c(N5CC6CCC(C5)N6)nc(OCC56CCCN5CC(F)C6)nc4c3F)c12
Second compound 0.0316 µM
  IC50: < 31.6 nM
Second compound 0.1 µM
  IC50: < 31.6 nM
Second compound 0.316 µM
  IC50: < 31.6 nM
Second compound 1 µM
  IC50: < 31.6 nM
Second compound 3.16 µM
  IC50: < 31.6 nM
Second compound 10 µM
  IC50: < 31.6 nM
[1]
  viability, T/C: 5.3%
[2]
  viability, T/C: 5.14%
[3]
  viability, T/C: 5.59%
[4]
  viability, T/C: 4.15%
Second compound 0.0316 µM, first compound 3.16 µM
  viability, T/C: 5.04%
Second compound 0.0316 µM, first compound 10 µM
  viability, T/C: 4.9%
[5]
  viability, T/C: 6.01%
[6]
  viability, T/C: 5.73%
[7]
  viability, T/C: 4.94%
[8]
  viability, T/C: 4.03%
Second compound 0.1 µM, first compound 3.16 µM
  viability, T/C: 5.26%
Second compound 0.1 µM, first compound 10 µM
  viability, T/C: 3.53%
[9]
  viability, T/C: 5.77%
[10]
  viability, T/C: 4.92%
[11]
  viability, T/C: 4.48%
[12]
  viability, T/C: 4.42%
Second compound 0.316 µM, first compound 3.16 µM
  viability, T/C: 4.75%
Second compound 0.316 µM, first compound 10 µM
  viability, T/C: 5%
[13]
  viability, T/C: 4.79%
[14]
  viability, T/C: 5.04%
[15]
  viability, T/C: 4.17%
[16]
  viability, T/C: 4.69%
Second compound 1 µM, first compound 3.16 µM
  viability, T/C: 5.21%
Second compound 1 µM, first compound 10 µM
  viability, T/C: 4.15%
Second compound 3.16 µM, first compound 0.0316 µM
  viability, T/C: 3.84%
Second compound 3.16 µM, first compound 0.1 µM
  viability, T/C: 4.36%
Second compound 3.16 µM, first compound 0.316 µM
  viability, T/C: 4.81%
Second compound 3.16 µM, first compound 1 µM
  viability, T/C: 3.94%
Second compound 3.16 µM, first compound 3.16 µM
  viability, T/C: 4.59%
Second compound 3.16 µM, first compound 10 µM
  viability, T/C: 3.53%
Second compound 10 µM, first compound 0.0316 µM
  viability, T/C: 4.68%
Second compound 10 µM, first compound 0.1 µM
  viability, T/C: 3.75%
Second compound 10 µM, first compound 0.316 µM
  viability, T/C: 4.17%
Second compound 10 µM, first compound 1 µM
  viability, T/C: 4.45%
Second compound 10 µM, first compound 3.16 µM
  viability, T/C: 4.43%
Second compound 10 µM, first compound 10 µM
  viability, T/C: 3.61%

## Nc1ccn(C2OC(CO)C(O)C2(F)F)c(=O)n1 (stereo unspecified) + C=CC(=O)N1CCN(c2nc(OCC3CCCN3C)nc3c(F)c(-c4nc(N)cc(C)c4C(F)(F)F)c(Cl)cc23)C(C)C1
Second compound 0.00316 µM
  IC50: 5.06 nM
Second compound 0.01 µM
  IC50: 5.02 nM
Second compound 0.0316 µM
  IC50: 4.55 nM
Second compound 0.1 µM
  IC50: 4.41 nM
Second compound 0.316 µM
  IC50: 4.45 nM
Second compound 1 µM
  IC50: < 3.16 nM
Second compound 0.00316 µM, first compound 0.00316 µM
  viability, T/C: 73.3%
Second compound 0.00316 µM, first compound 0.01 µM
  viability, T/C: 16.4%
Second compound 0.00316 µM, first compound 0.0316 µM
  viability, T/C: 12.9%
Second compound 0.00316 µM, first compound 0.1 µM
  viability, T/C: 10.3%
Second compound 0.00316 µM, first compound 0.316 µM
  viability, T/C: 11.1%
Second compound 0.00316 µM, first compound 1 µM
  viability, T/C: 11.5%
Second compound 0.01 µM, first compound 0.00316 µM
  viability, T/C: 73.9%
Second compound 0.01 µM, first compound 0.01 µM
  viability, T/C: 14.4%
Second compound 0.01 µM, first compound 0.0316 µM
  viability, T/C: 10.9%
Second compound 0.01 µM, first compound 0.1 µM
  viability, T/C: 10.2%
Second compound 0.01 µM, first compound 0.316 µM
  viability, T/C: 9.07%
Second compound 0.01 µM, first compound 1 µM
  viability, T/C: 11%
Second compound 0.0316 µM, first compound 0.00316 µM
  viability, T/C: 65.2%
Second compound 0.0316 µM, first compound 0.01 µM
  viability, T/C: 17.3%
[1]
  viability, T/C: 13.5%
[2]
  viability, T/C: 10.2%
[3]
  viability, T/C: 10.7%
[4]
  viability, T/C: 12.2%
Second compound 0.1 µM, first compound 0.00316 µM
  viability, T/C: 64.1%
Second compound 0.1 µM, first compound 0.01 µM
  viability, T/C: 15.2%
[5]
  viability, T/C: 11.7%
[6]
  viability, T/C: 11.3%
[7]
  viability, T/C: 10.1%
[8]
  viability, T/C: 11.8%
Second compound 0.316 µM, first compound 0.00316 µM
  viability, T/C: 64.3%
Second compound 0.316 µM, first compound 0.01 µM
  viability, T/C: 16%
[9]
  viability, T/C: 13.1%
[10]
  viability, T/C: 11.8%
[11]
  viability, T/C: 11.8%
[12]
  viability, T/C: 12.9%
Second compound 1 µM, first compound 0.00316 µM
  viability, T/C: 45.3%
Second compound 1 µM, first compound 0.01 µM
  viability, T/C: 18.9%
[13]
  viability, T/C: 17.2%
[14]
  viability, T/C: 14.1%
[15]
  viability, T/C: 13.5%
[16]
  viability, T/C: 14.8%

## CC(=O)OC12COC1CC(O)C1(C)C(=O)C(O)C3=C(C)C(OC(=O)C(O)C(NC(=O)OC(C)(C)C)c4ccccc4)CC(O)(C(OC(=O)c4ccccc4)C21)C3(C)C (stereo unspecified) + CCn1c(-c2cc(N3CCN(C)CC3)cnc2C(C)OC)c2c3cc(ccc31)-c1csc(n1)CC(NC(=O)C1CC1C)C(=O)N1CCCC(N1)C(=O)OCC(C)(C)C2
Second compound 0.000949 µM
  IC50: < 31.6 nM
Second compound 0.003 µM
  IC50: < 31.6 nM
Second compound 0.00949 µM
  IC50: < 31.6 nM
Second compound 0.03 µM
  IC50: < 31.6 nM
Second compound 0.0949 µM
  IC50: < 31.6 nM
Second compound 0.3 µM
  IC50: < 31.6 nM
Second compound 0.000949 µM, first compound 0.0316 µM
  viability, T/C: 3.93%
Second compound 0.000949 µM, first compound 0.1 µM
  viability, T/C: 3.88%
Second compound 0.000949 µM, first compound 0.316 µM
  viability, T/C: 3.15%
Second compound 0.000949 µM, first compound 1 µM
  viability, T/C: 3.35%
Second compound 0.000949 µM, first compound 3.16 µM
  viability, T/C: 3.1%
Second compound 0.000949 µM, first compound 10 µM
  viability, T/C: 2.87%
Second compound 0.003 µM, first compound 0.0316 µM
  viability, T/C: 4.18%
Second compound 0.003 µM, first compound 0.1 µM
  viability, T/C: 3.41%
Second compound 0.003 µM, first compound 0.316 µM
  viability, T/C: 3.5%
Second compound 0.003 µM, first compound 1 µM
  viability, T/C: 3.44%
Second compound 0.003 µM, first compound 3.16 µM
  viability, T/C: 3.13%
Second compound 0.003 µM, first compound 10 µM
  viability, T/C: 3.15%
Second compound 0.00949 µM, first compound 0.0316 µM
  viability, T/C: 4.39%
Second compound 0.00949 µM, first compound 0.1 µM
  viability, T/C: 3.52%
Second compound 0.00949 µM, first compound 0.316 µM
  viability, T/C: 3.8%
Second compound 0.00949 µM, first compound 1 µM
  viability, T/C: 3.26%
Second compound 0.00949 µM, first compound 3.16 µM
  viability, T/C: 3.42%
Second compound 0.00949 µM, first compound 10 µM
  viability, T/C: 3.14%
Second compound 0.03 µM, first compound 0.0316 µM
  viability, T/C: 3.02%
Second compound 0.03 µM, first compound 0.1 µM
  viability, T/C: 3.1%
Second compound 0.03 µM, first compound 0.316 µM
  viability, T/C: 2.91%
Second compound 0.03 µM, first compound 1 µM
  viability, T/C: 3.18%
Second compound 0.03 µM, first compound 3.16 µM
  viability, T/C: 2.79%
Second compound 0.03 µM, first compound 10 µM
  viability, T/C: 2.64%
Second compound 0.0949 µM, first compound 0.0316 µM
  viability, T/C: 2.92%
Second compound 0.0949 µM, first compound 0.1 µM
  viability, T/C: 2.71%
Second compound 0.0949 µM, first compound 0.316 µM
  viability, T/C: 3.02%
Second compound 0.0949 µM, first compound 1 µM
  viability, T/C: 2.38%
Second compound 0.0949 µM, first compound 3.16 µM
  viability, T/C: 2.59%
Second compound 0.0949 µM, first compound 10 µM
  viability, T/C: 2.18%
Second compound 0.3 µM, first compound 0.0316 µM
  viability, T/C: 2.53%
Second compound 0.3 µM, first compound 0.1 µM
  viability, T/C: 2.47%
Second compound 0.3 µM, first compound 0.316 µM
  viability, T/C: 2.58%
Second compound 0.3 µM, first compound 1 µM
  viability, T/C: 2.35%
Second compound 0.3 µM, first compound 3.16 µM
  viability, T/C: 2.5%
Second compound 0.3 µM, first compound 10 µM
  viability, T/C: 2.28%
